Measurements published in patent US8124766B2, “Inhibitors of diacylglycerol acyltransferase” (Madrigal Pharmaceuticals, Inc., priority 2008, dated 2012).

system: DGAT; experiment: DGAT Phospholipid FlashPlate Assay; format: biochemical; conditions: DGAT pellet, DAG-coated PL-FlashPlate, 14C-Pal-CoA, 37° C. for 1 hour; read-out: DGAT Inhibition Activity IC50
Procedure: DGAT Phospholipid FlashPlate Assay
Materials for the assay were: PL-FlashPlate: Phospholipid FlashPlates from PerkinElmer, catalog number SMP108; DAG (1,2-Dioleoyl-sn-glycerol) 10 mM suspended in water containing 0.1% Triton X-100; ^14C-Pal-CoA (palmitoyl coenzyme A, [palmitoyl-1-^14C]) from PerkinElmer, catalog number NEC-555 with a specific activity of 55 mCi/mmol; and DGAT pellet, with a protein concentration of 9.85 mg/ml.
Aqueous buffers were prepared or purchased as follows: The coating buffer (CB) was purchased from PerkinElmer, catalog number SMP900A; the reaction buffer (RB) was 50 mM Tris-HCl, pH 7.5, 100 mM NaCl, 0.01% BSA in water; the washing buffer (WB) is 50 mM Tris-HCl, pH 7.5, 100 mM NaCl, 0.05% deoxycholic acid sodium salt in water; the dilution buffer (DB) was 50 mM Tris-HCl, pH 7.5, 100 mM NaCl, 1 mM EDTA, 0.2% Triton X-100 in water.
1,2-Dioleoyl-sn-glycerol (DAG, 10 mmoles) was diluted to 500 μM with coating buffer (CB). The diluted DAG solution was then added to 384-well PL-FlashPlates at 60 μl per well, and incubated at room temperature for 2 days. The coated plates were then washed twice with washing buffer (WB) before use. Test compounds were serial diluted to 2000, 666.7, 222.2, 74.1, 24.7, 8.2, 2.7 and 0.9 μM in 100% DMSO. Diluted compound were further diluted 10 fold with reaction buffer (RB). ^14C-Pal-CoA was diluted to 8.3 μM with RB. The DGAT pellet was diluted to 0.13 mg protein/ml with dilution buffer (DB) immediately before it was added to the PL-FlashPlates to start the reaction. 20 μl of the RB-diluted compounds (or 10% DMSO in RB for Total and Blank), 15 μl of RB diluted 14C-Pal-CoA and 15 μl of DB diluted DGAT pellet (DB without DGAT for Blanks) were transferred to each well of the PL-FlashPlates. The reaction mixtures were incubated at 37° C. for 1 hour. The reactions were stopped by washing 3 times with WB. Plates were sealed with Top-seal and read on a Topcount instrument.
Calculation of IC50: The IC50 values for each compound were generated using an Excel template. The Topcount rpm readings of Total and Blank were used as 0% and 100% inhibition. The percent inhibition values of reactions in the presence of compounds were calculated, and plotted against compound concentrations. All data were fitted into a Dose Response One Site model (4 parameter logistic model) as the following: (A+((B−A)/(1+((x/C)^D)))), with A and B as the bottom and top of the curve (highest and lowest inhibition), respectively, and C as IC50 and D as Hill Coefficient of the compound.

IC50 [nM]	SMILES
433	CCn1c(C(=O)Nc2ccc(N3CCN(C(=O)OC(C)(C)C)CC3)nc2)cc2c(C(F)(F)F)cccc21 [Example 14, 4-{5-[(1-Ethyl-4-trifluoromethyl-1H-indole-2-carbonyl)-amino]-pyridin-2-yl}-piperazine-1-carboxylic acid tert-butyl ester]
183	CCn1c(C(=O)Nc2ccc(N3CCN(C(=O)CC(C)(C)C(=O)O)CC3)nc2)cc2c(C(F)(F)F)cccc21 [Example 15, 4-(4-{5-[(1-Ethyl-4-trifluoromethyl-1H-indole-2-carbonyl)-amino]-pyridin-2-yl}-piperazin-1-yl)-2,2-dimethyl-4-oxo-butyric acid]
248	CCn1c(C(=O)Nc2ccc(N3CCN(C(=O)OC(C)(C)C)CC3)nc2)cc2c(OC)cc(OC)cc21 [Example 16, 4-{5-[(1-Ethyl-4,6-dimethoxy-1H-indole-2-carbonyl)-amino]-pyridin-2-yl}-piperazine-1-carboxylic acid tert-butyl ester]
270	CCn1c(C(=O)Nc2ccc(N3CCN(C(=O)CC(C)(C)C(=O)O)CC3)nc2)cc2c(OC)cc(OC)cc21 [Example 17, 4-(4-{5-[(1-Ethyl-4,6-dimethoxy-1H-indole-2-carbonyl)-amino]-pyridin-2-yl}-piperazin-1-yl)-2,2-dimethyl-4-oxo-butyric acid]
255	CCn1c(C(=O)Nc2ccc(N3CCN(C(=O)OC(C)(C)C)CC3)nc2)cc2c(Cl)c(Cl)ccc21 [Example 18, 4-{5-[(4,5-Dichloro-1-ethyl-1H-indole-2-carbonyl)-amino]-pyridin-2-yl}-piperazine-1-carboxylic acid tert-butyl ester]
80	CCn1c(C(=O)Nc2ccc(N3CCN(C(=O)CC(C)(C)C(=O)O)CC3)nc2)cc2c(Cl)c(Cl)ccc21 [Example 19, 4-(4-{5-[(4,5-Dichloro-1-ethyl-1H-indole-2-carbonyl)-amino]-pyridin-2-yl}-piperazin-1-yl)-2,2-dimethyl-4-oxo-butyric acid]
84	CCn1c(C(=O)Nc2ccc(N3CCN(C(=O)OC(C)(C)C)CC3)nc2)cc2c(OC)cccc21 [Example 20, 4-{5-[(1-Ethyl-4-methoxy-1H-indole-2-carbonyl)-amino]-pyridin-2-yl}-piperazine-1-carboxylic acid tert-butyl ester]
282	CCOC(=O)N1CCN(c2ccc(NC(=O)c3cc4c(OC)cccc4n3CC)cn2)CC1 [Example 21, 4-{5-[(1-Ethyl-4-methoxy-1H-indole-2-carbonyl)-amino]-pyridin-2-yl}-piperazine-1-carboxylic acid ethyl ester]
86	CCn1c(C(=O)Nc2ccc(N3CCN(C(=O)OC(C)(C)C)CC3)nc2)cc2c(OC)c(OC)ccc21 [Example 22, 4-{5-[(1-Ethyl-4,5-dimethoxy-1H-indole-2-carbonyl)-amino]-pyridin-2-yl}-piperazine-1-carboxylic acid tert-butyl ester]
571	CCn1c(C(=O)Nc2ccc(N3CCN(C(=O)OC(C)(C)C)CC3)nc2)cc2cc(Cl)ccc21 [Example 23, 4-{5-[(5-Chloro-1-ethyl-1H-indole-2-carbonyl)-amino]-pyridin-2-yl}-piperazine-1-carboxylic acid tert-butyl ester]
512	CC(C)(C)OC(=O)N1CCN(c2ccc(NC(=O)c3cc4c(Cl)cccc4s3)cc2)CC1 [Example 24, 4-{4-[(4-Chloro-benzo[b]thiophene-2-carbonyl)-amino]-phenyl}-piperazine-1-carboxylic acid tert-butyl ester]
127	CC(C)(CC(=O)N1CCC(c2ccc(NC(=O)c3cc4c(Cl)cccc4s3)cc2)CC1)C(=O)O [Example 25, 4-(4-{4-[(4-Chloro-benzo[b]thiophene-2-carbonyl)-amino]-phenyl}-piperidin-1-yl)-2,2-dimethyl-4-oxo-butyric acid]
145	CC(C)(CC(=O)N1CCN(c2ccc(NC(=O)c3cc4c(Cl)cccc4s3)cc2)CC1)C(=O)O [Example 26, 4-(4-{4-[(4-Chloro-benzo[b]thiophene-2-carbonyl)-amino]-phenyl}-piperazin-1-yl)-2,2-dimethyl-4-oxo-butyric acid]
